Source: patent EP4273147A1, “SUBSTITUTED SPIROLACTAMS, SALTS THEREOF AND THEIR USE AS HERBICIDALLY ACTIVE SUBSTANCES” (Bayer Aktiengesellschaft, priority 2022, dated 2023)

Legend:
ECHCG [1] = assay: Herbicidal pre-emergence action (Table A2); assay type: in vivo, Echinochloa crus-galli; conditions: visual grading after ca. 3 weeks
Procedure, shortened: (§1)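 Weed seeds are sown into sandy loam in pots and covered with soil, with two species per pot, one monocot and one dicot.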

LOLRI [2] = assay: Herbicidal pre-emergence action (Table A3); assay type: in vivo, Lolium rigidum; conditions: application rate 320 g/ha; visual grading after ca. 3 weeks
Procedure, shortened: as §1

MATIN [3] = assay: Herbicidal pre-emergence action (Table A4); assay type: in vivo, Matricaria inodora; conditions: application rate 1280 g/ha; visual grading after ca. 3 weeks
Procedure, shortened: as §1

SETVI [4] = assay: Herbicidal pre-emergence action (Table A5); assay type: in vivo, Setaria viridis; conditions: application rate 320 g/ha; visual grading after ca. 3 weeks
Procedure, shortened: as §1

STEME = assay: Herbicidal pre-emergence action (Table A6); assay type: in vivo, Stellaria media; conditions: application rate 320 g/ha; visual grading after ca. 3 weeks
Procedure, shortened: as §1

POAAN [5] = assay: Herbicidal pre-emergence action (Table A7); assay type: in vivo, Poa annua; conditions: application rate 320 g/ha; visual grading after ca. 3 weeks
Procedure, shortened: as §1

AMARE = assay: Herbicidal pre-emergence action (Table A8); assay type: in vivo, Amaranthus retroflexus; conditions: application rate 1280 g/ha; visual grading after ca. 3 weeks vs untreated controls (100% = plants have died off, 0% = as control plants)
Procedure, shortened: as §1

KCHSC = assay: Herbicidal pre-emergence action (Table A10); assay type: in vivo, Kochia scoparia; conditions: application rate 320 g/ha; visual grading after ca. 3 weeks
Procedure, shortened: as §1

VERPE [6] = assay: Herbicidal pre-emergence action (Table A11); assay type: in vivo, Veronica persica; conditions: application rate 1280 g/ha; visual grading after ca. 3 weeks
Procedure, shortened: as §1

DIGSA [7] = assay: Herbicidal pre-emergence action (Table A12); assay type: in vivo, Digitaria sanguinalis; conditions: visual grading after ca. 3 weeks
Procedure, shortened: as §1

ABUTH [8] = assay: Herbicidal post-emergence action (Table B1); assay type: in vivo, Abutilon theophrasti; conditions: application rate 1280 g/ha; treated at one-leaf stage; rated visually after about 3 weeks vs untreated controls (100% = plants have died, 0% = like control plants)
Procedure, shortened: (§2)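 Percent herbicidal activity scored visually versus untreated controls, with 100% meaning dead plants. Scoring took place ~3 weeks after post-emergence treatment of one-leaf-stage weeds grown in sandy loam pots in a greenhouse.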

ECHCG [9] = assay: Herbicidal post-emergence action (Table B3); assay type: in vivo, Echinochloa crus-galli; conditions: application rate 1280 g/ha; rated visually after about 3 weeks
Procedure, shortened: as §2

LOLRI [10] = assay: Herbicidal post-emergence action (Table B5); assay type: in vivo, Lolium rigidum; conditions: application rate 1280 g/ha; rated visually after about 3 weeks
Procedure, shortened: as §2

MATIN [11] = assay: Herbicidal post-emergence action (Table B6); assay type: in vivo, Matricaria inodora; conditions: application rate 1280 g/ha; rated visually after about 3 weeks
Procedure, shortened: as §2

POAAN [12] = assay: Herbicidal post-emergence action (Table B7); assay type: in vivo, Poa annua; conditions: application rate 1280 g/ha
Procedure, shortened: as §2

VERPE [13] = assay: Herbicidal post-emergence action (Table B10); assay type: in vivo, Veronica persica; conditions: application rate 1280 g/ha
Procedure, shortened: as §2

DIGSA [14] = assay: Herbicidal post-emergence action (Table B12); assay type: in vivo, Digitaria sanguinalis; conditions: application rate 1280 g/ha
Procedure, shortened: as §2

ALOMY [15] = assay: Herbicidal pre-emergence action, section C (Table C2); assay type: in vivo, Alopecurus myosuroides; conditions: application rate 320 g/ha; visual grading after ca. 3 weeks
DIGSA [16] = assay: Herbicidal pre-emergence action, section C (Table C5); assay type: in vivo, Digitaria sanguinalis; conditions: visual grading after ca. 3 weeks
ECHCG [17] = assay: Herbicidal pre-emergence action, section C (Table C6); assay type: in vivo, Echinochloa crus-galli; conditions: application rate 80 g/ha; visual grading after ca. 3 weeks
LOLRI [18] = assay: Herbicidal pre-emergence action, section C (Table C7); assay type: in vivo, Lolium rigidum; conditions: application rate 320 g/ha; visual grading after ca. 3 weeks
MATIN [19] = assay: Herbicidal pre-emergence action, section C (Table C8); assay type: in vivo, Matricaria inodora; conditions: application rate 320 g/ha; visual grading after ca. 3 weeks
POLCO = assay: Herbicidal pre-emergence action, section C (Table C9); assay type: in vivo, Polygonum convolvulus; conditions: application rate 320 g/ha; visual grading after ca. 3 weeks
Description: (§4) Seeds of mono- and dicotyledonous weed plants and crop plants were sown, in plastic or organic planting pots, in sandy loam and covered with soil. The compounds according to the invention, formulated in the form of wettable powders (WP) or as emulsifiable concentrates (EC), were applied to the surface of the covering soil as aqueous suspension or emulsion, with the addition of 0.5% of an additive, at an application rate of 600 1 of water/ha (converted). Following treatment, the pots were placed in a greenhouse and kept under optimum growth conditions for the test plants.

SETVI [20] = assay: Herbicidal pre-emergence action, section C (Table C10); assay type: in vivo, Setaria viridis; conditions: application rate 320 g/ha; visual grading after ca. 3 weeks
VERPE [21] = assay: Herbicidal pre-emergence action, section C (Table C11); assay type: in vivo, Veronica persica; conditions: visual grading after ca. 3 weeks
VIOTR [22] = assay: Herbicidal pre-emergence action, section C (Table C12); assay type: in vivo, Viola tricolor; conditions: application rate 80 g/ha; visual grading after ca. 3 weeks
Description: as §4

ZEAMX [23] = assay: Pre-emergence effects on crop plants (Table D1); assay type: in vivo, Zea mays; conditions: crop plant, visual grading after ca. 3 weeks
TRZAS [24] = assay: Pre-emergence effects on crop plants (Table D2); assay type: in vivo, Triticum aestivum; conditions: crop plant; application rate 320 g/ha; visual grading after ca. 3 weeks
Description: Seeds of mono- and dicotyledonous weed plants and crop plants were sown, in plastic or organic planting pots, in sandy loam and covered with soil. The compounds according to the invention, formulated in the form of wettable powders (WP) or as emulsifiable concentrates (EC), were applied to the surface of the covering soil as aqueous suspension or emulsion, with the addition of 0.5% of an additive, at an application rate of 600 1 of water/ha (converted).
Following treatment, the pots were placed in a greenhouse and kept under optimum growth conditions for the test plants.

ABUTH [25] = assay: Herbicidal post-emergence action, section E (Table E1); assay type: in vivo, Abutilon theophrasti; conditions: application rate 320 g/ha; assessed visually after ca. 3 weeks
Description: (§3) 2 to 3 weeks after sowing, the test plants were sprayed in the single-leaf stage.

ECHCG [26] = assay: Herbicidal post-emergence action, section E (Table E5); assay type: in vivo, Echinochloa crus-galli; conditions: application rate 320 g/ha; assessed visually after ca. 3 weeks
Description: as §3

VERPE [27] = assay: Herbicidal post-emergence action, section E (Table E9); assay type: in vivo, Veronica persica; conditions: application rate 320 g/ha; assessed visually after ca. 3 weeks
Description: as §3

ZEAMX [28] = assay: Post-emergence effects on crop plants (Table F1); assay type: in vivo, Zea mays; conditions: application rate 320 g/ha, crop plant ZEAMX
Description: as §3

TRZAS [29] = assay: Post-emergence effects on crop plants (Table F2); assay type: in vivo, Triticum aestivum; conditions: application rate 320 g/ha, crop plant TRZAS
Description: as §3

ORYZA [30] = assay: Post-emergence effects on crop plants (Table F3); assay type: in vivo, Oryza sativa; conditions: application rate 320 g/ha, crop plant ORYZA
Description: as §3

ABUTH [31] = assay: Herbicidal pre-emergence action (Table A1); assay type: in vivo, Abutilon theophrasti; conditions: application rate 1280 g/ha; visual grading after ca. 3 weeks vs untreated controls (100% = plants have died off, 0% = as control plants)
Procedure, shortened: as §1

ALOMY [32] = assay: Herbicidal pre-emergence action (Table A9); assay type: in vivo, Alopecurus myosuroides; conditions: application rate 1280 g/ha; visual grading after ca. 3 weeks
Procedure, shortened: as §1

SETVI [33] = assay: Herbicidal post-emergence action (Table B8); assay type: in vivo, Setaria viridis; conditions: application rate 1280 g/ha
Procedure, shortened: as §2

ABUTH [34] = assay: Herbicidal pre-emergence action, section C (Table C1); assay type: in vivo, Abutilon theophrasti; conditions: application rate 320 g/ha; visual grading after ca. 3 weeks
VIOTR [35] = assay: Herbicidal post-emergence action, section E (Table E10); assay type: in vivo, Viola tricolor; conditions: application rate 320 g/ha; assessed visually after ca. 3 weeks
Description: as §3

ORYZA [36] = assay: Pre-emergence effects on crop plants (Table D3); conditions: crop plant; application rate 80 g/ha; visual grading after ca. 3 weeks

Row | SMILES | pre-emergence activity against LOLRI (LOLRI [2]) [%] | pre-emergence activity against MATIN (MATIN [3]) [%] | pre-emergence activity against SETVI (SETVI [4]) [%] | pre-emergence activity against STEME (STEME) [%] | pre-emergence activity against POAAN (POAAN [5]) [%] | pre-emergence activity against AMARE (AMARE) [%] | pre-emergence activity against KCHSC (KCHSC) [%] | pre-emergence activity against VERPE (VERPE [6]) [%] | post-emergence activity against ECHCG (ECHCG [9]) [%] | post-emergence activity against DIGSA (DIGSA [14]) [%] | pre-emergence activity against ALOMY (ALOMY [15]) [%] | pre-emergence activity against ECHCG (ECHCG [17]) [%] | pre-emergence activity against LOLRI (LOLRI [18]) [%] | pre-emergence activity against MATIN (MATIN [19]) [%] | pre-emergence activity against SETVI (SETVI [20]) [%] | pre-emergence activity against VIOTR (VIOTR [22]) [%] | post-emergence activity against ABUTH (ABUTH [25]) [%] | post-emergence activity against ZEAMX (ZEAMX [28]) [%] | post-emergence activity against TRZAS (TRZAS [29]) [%] | post-emergence activity against ORYZA (ORYZA [30]) [%] | also measured
1 | O=C1N(Cc2cccc(F)c2F)CCCC12CCN(Cc1cccc(F)c1F)C2=O (racemic) [I-025] | 100 | 90 | 100 | 90 | 100 | 90 | 90 | 90 | 90 | 90 | 100 | 100 | 90 | 90 | 90 | 90 | 80 | 0 | 0 | 0 | pre-emergence activity against ECHCG (ECHCG [1]; application rate 320 g/ha): 100%; pre-emergence activity against DIGSA (DIGSA [7]; application rate 1280 g/ha): 100%; post-emergence activity against ABUTH (ABUTH [8]): 90%; post-emergence activity against LOLRI (LOLRI [10]): 90%; post-emergence activity against MATIN (MATIN [11]): 90%; post-emergence activity against POAAN (POAAN [12]): 90%; post-emergence activity against VERPE (VERPE [13]): 90%; pre-emergence activity against DIGSA (DIGSA [16]; application rate 320 g/ha): 100%; pre-emergence activity against POLCO (POLCO): 90%; pre-emergence activity against VERPE (VERPE [21]; application rate 80 g/ha): 90%; pre-emergence activity against ZEAMX (ZEAMX [23]; application rate 320 g/ha): 0%; pre-emergence activity against TRZAS (TRZAS [24]): 10%; post-emergence activity against ECHCG (ECHCG [26]): 80%; post-emergence activity against VERPE (VERPE [27]): 80%
2 | O=C1N(Cc2ccccc2F)CCCC12CCN(Cc1c(F)cccc1F)C2=O (racemic) [I-020] | 100 | 90 | 100 | 90 | 100 | 90 | 90 | 90 | 90 | 90 | 100 | 100 | 100 | 80 | 100 | 90 | 80 | 20 | 0 | 0 | pre-emergence activity against ABUTH (ABUTH [31]): 90%; pre-emergence activity against ECHCG (ECHCG [1]; application rate 1280 g/ha): 100%; pre-emergence activity against ALOMY (ALOMY [32]): 90%; pre-emergence activity against DIGSA (DIGSA [7]; application rate 320 g/ha): 100%; post-emergence activity against SETVI (SETVI [33]): 90%; pre-emergence activity against ABUTH (ABUTH [34]): 90%; pre-emergence activity against DIGSA (DIGSA [16]; application rate 80 g/ha): 100%; pre-emergence activity against VERPE (VERPE [21]; application rate 320 g/ha): 90%; pre-emergence activity against ZEAMX (ZEAMX [23]; application rate 80 g/ha): 0%; post-emergence activity against VIOTR (VIOTR [35]): 80%; pre-emergence activity against ORYZA (ORYZA [36]): 0%
